“Also recorded” adds a separate entry of the source.
What was measured:
[1] = General assessment of mice following injections; type: in vivo
Source text: We then did a general assessment of mice following injections of J54. […] To get a better assessment of the possible behavioral effects of J54, the inventors used C. elegans that has a simple but complete nervous system and has been well characterized for its responses to anti-psychotic drugs, including actions at serotonin or dopamine receptors.

LNCaP and TRAMP-C2 cells = assay: Early change in cell number (MTT assay) over 72 h; type: cell-based; details: J54 alone
Description: (§1) All experiments were conducted in triplicates. […] The cells were grown for 2-3 weeks and stained with crystal violet. All experiments were conducted in triplicates. […] The cell lines used were human “normal” RWPE-1, LNCaP, (LNCaP-derivative) C4-2B, 22RV1, DU14, PC3, and mouse TRAMP-C2. FIGS. 11C and 11D show cell proliferation of LNCaP and TRAMP-C2 were determined during a 3 days incubation with different concentration of J54 (MTS assay). All experiments were conducted in triplicates. […] Representative analysis of two independent experiments are shown.
(§2) J54 in combination with anti-androgen (Bicalutamide) induces apoptosis in AS PCa cells. […] The inventors thus tested the same panel of cells in androgen containing medium (FBS) by proliferation assays. […] Note that VCaP cells were 60% inhibited by J54 alone, consistent with their elevated replication stress-driven DDR and checkpoint activation (FIG. 12E), which when suppressed with J54 could lead to apoptosis. Clonogenic assays are unable to distinguish the effects of a DNA damaging agent, which can result in either an impaired or delayed resumption of growth (cell division) or loss of viability due to increased killing of the initial population. The inventors thus measured in LNCaP and TRAMP-C2 cells the early change in cell number (MTT assay) over 72 h with J54 alone.

[2] = test system: RWPE1 (normal prostate) cell line; assay: Cell proliferation assay, normal prostate cells; type: cell-based, human
Description: as §1, §2

recombinant TLK1B = target: T1, recombinant TLK1B (Homo sapiens, UniProt Q9UKI8); assay: TLK1B kinase assay with Nek1 peptide (ADP Hunter), inhibitor screening; type: biochemical; parameters: The full-length, 65 KDa recombinant human TLK1B (hTLK1B) for the in-vitro experiments was expressed and purified from bacteria; made in house; host or cells: bacteria
T1 sequence (Q9UKI8 1-549 isoform Q9UKI8-3): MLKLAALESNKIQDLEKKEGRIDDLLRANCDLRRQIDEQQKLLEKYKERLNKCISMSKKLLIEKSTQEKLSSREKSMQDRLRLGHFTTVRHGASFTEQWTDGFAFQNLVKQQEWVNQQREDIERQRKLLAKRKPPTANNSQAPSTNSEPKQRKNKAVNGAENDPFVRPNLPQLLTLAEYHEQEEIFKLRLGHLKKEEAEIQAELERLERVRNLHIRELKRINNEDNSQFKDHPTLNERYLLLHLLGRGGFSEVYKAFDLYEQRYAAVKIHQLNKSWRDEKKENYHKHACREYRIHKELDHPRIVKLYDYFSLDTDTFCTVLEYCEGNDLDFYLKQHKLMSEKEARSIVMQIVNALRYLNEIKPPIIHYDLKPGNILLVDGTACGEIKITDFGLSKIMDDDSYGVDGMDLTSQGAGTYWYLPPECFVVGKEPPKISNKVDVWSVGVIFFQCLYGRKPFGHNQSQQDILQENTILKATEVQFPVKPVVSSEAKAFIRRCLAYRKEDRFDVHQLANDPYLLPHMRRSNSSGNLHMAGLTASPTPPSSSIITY
Description: FIG. 8A-FIG. 25 show further experiments into the present invention, with FIGS. 8A-8G show kinase assays, inhibitor screening, IC50 evaluation and competitive assays. Recombinant TLK1B purified to homogeneity (FIG. 8A) is active in kinase assays (FIG. 8B) and phosphorylates a specific Nek1 peptide (FIG. 8C). […] All experiments were conducted in triplicates. The DiscoverRx ADP Hunter™ (Eurofins DiscoverRx, Fremont, CA, US) Kit was used to measure the generation of ADP resulting from kinase phosphorylation of substrate.
Chemical synthesis of J54 and several different Phenothiazines and Protein expression and purification: Details were explained in section B of supplementary of material and methods. The full-length, 65 KDa recombinant human TLK1B (hTLK1B) for the in-vitro experiments was expressed and purified from bacteria as described earlier.
Results: A new PTH potent inhibitor of TLK1B. A few PTH antipsychotics were identified in a screen the inventors conducted from a compounds library as good inhibitors of TLK1. To find additional inhibitors, recombinant TLK1B was purified (FIG. 8A). The enzymatic activity was determined using the ADP-Hunter reagents and a Nek1 peptide containing the T141 target site. […] Several structurally similar compounds were synthesized as described in the Appendix (and see NMR and MS data FIGS. 10 and 11) and tested at 20 μM (FIGS. 8E and 8F). […] The inventors continued the inventors' characterization of J54.

[3] = test system: recombinant human dopamine receptors (D1 and D3); assay: Competitive radioassay with 7-Hydroxy DPAT, R-(+)-[3H] tracer; type: binding; details: 100 nM, compared to THD
VCaP cells = assay: Clonogenic assay, VCaP; type: cell-based; details: J54 alone
Description: as §1, §2

[4] = test system: p-Nek1-T141 in LNCaP, VCaP, TRAMP-C2; assay: Western blots of checkpoint and apoptotic markers; type: cell-based; details: with or without BIC, all 3 AS cell lines
Description: LNCaP, VCaP, and TRAMP-C2 cells from the four treatment groups as indicated were analyzed by WB for several indicators of DNA damage/apoptosis and mediators of cell cycle arrest. Representative analysis of two independent experiments for each cell line are shown
J54 with Bicalutamide suppresses the checkpoint markers and induces apoptotic markers. LNCaP, VCaP, and TRAMP-C2 are the main examples of established PCa cell lines that are initially AS, but when maintained in ADT condition, recapitulate the conversion to AI growth observed in patients, and start growing again. In the initial phase of ADT, they arrest cell division, primarily at the G1/S transition, and become quiescent, which is a protective effect from undergoing replication forks collapse upon inhibition of the licensing function of the AR. […] The inventors were also able to reproduce that the expression of TLK1B was induced in LNCaP and TRAMP-C2 following the addition of BIC. […] The VCaP cells were a little different because even without any BIC, p-ATR and p-Chk1 were already elevated. This has been observed before and attributed to a constitutive DDR activation due to the TMPRSS2-ERG fusion in these cells.

In the case of `c1ccc2c(c1)Sc1ccccc1N2CCN1CCOCC1` [J54, 4-(2-(10H-phenothiazin-10-yl)ethyl) morpholine], the toxicity ([1]; incl. gross inspection of organs at necropsy) is reported as “no toxicity”, the behavioral changes ([1]; mouse, in vivo) is reported as “no behavioral changes” and the body weight ([1]; mouse, in vivo) is reported as “no decrease in body weight”. The “change in cell number” value (LNCaP and TRAMP-C2 cells) was “actual loss in cell counts in relation to the dose”, the “sensitivity of normal cells” value [2] was “insensitive; also recorded: non-toxic to normal cells” and the IC50 (recombinant TLK1B; new inhibitor screening assay) was 12.6 µM. For the same compound, the “inhibition of TLK1B compared with standard” value (recombinant TLK1B; tested at 20 μM) was “more inhibitory than Staurosporin”, the “antagonism of dopamine receptors” value [3] was “very weak antagonist” and the “inhibition of colony formation” value (VCaP cells) was 60%. The p-Nek1-T141 level [4] was “reduction in the p-Nek1-T141”.
